Reference: patent US20260240959A1, “METHODS FOR IN VIVO EDITING OF KLKB1” (INTELLIA THERAPEUTICS, INC., priority 2022, published 2026)

How the values were obtained:
[1] = Half-lives of HAE prophylactic products (from product sources); settings: for half-life: human
[2] = cited from earlier work
[3] = Plasma pharmacokinetics of LP01 (LC-MS/MS) in HAE patients; type: in vivo, human
Procedure: Blood samples were collected to assess plasma concentration time profiles pre-infusion, during the infusion period, and at the end of the infusion period. Post infusion samples were collected at predefined time points as indicated in the graph (FIG. 37). LP01 (Lipid A) was quantified using liquid chromatography with tandem mass spectrometry (LC-MS/MS) methods. Plasma samples were evaluated using validated methods following regulatory guidelines.

Molecule	half-life [1]	Half Life (t1/2) [2]	half-life ([3]; human, single dose IV infusion of NTLA-2002 25, 50 or 75 mg, range of cohort means, read-out: mean t1/2)	decline below limit of quantification by ([3]; single dose IV infusion of NTLA-2002)	Estimated washout for (5 half-lives) [1]
C#C[C@]1(O)CC[C@H]2[C@@H]3CCC4=Cc5oncc5C[C@]4(C)[C@H]3CC[C@@]21C [Danocrine, Danazol, reference compound]	48.5 h	9.7 h			
CCCCC/C=C\C/C=C\CCCCCCCC(=O)OCC(COC(=O)CCC(OCCCCCCCC)OCCCCCCCC)COC(=O)OCCCN(CC)CC (centres unmarked) [LP01, (9Z,12Z)-3-((4,4-bis(octyloxy)butanoyl)oxy)-2-((((3-(diethylamino)propoxy)carbonyl)oxy)methyl)propyl octadeca-9,12-dienoate]			16.8 to 21.3 h	≤ 15 days	
N#Cc1cccc([C@@H](NCC2CC2)c2ccc(F)c(NC(=O)c3cc(C(F)(F)F)nn3-c3cccc(CN)c3)c2)c1 [Orladeyo, Berotralstat, reference compound]	465 h	93 h			
C[C@]12COC(=O)C[C@@H]1CC[C@@H]1[C@@H]2CC[C@@]2(C)[C@H]1CC[C@]2(C)O [Oxandrin, Oxandrolone]	66.5 h				
Cinryze: C1 Esterase Inhibitor [Human], HAE prophylactic product		56 to 62 h			310 hours = ~13 days
Haegarda: C1 Esterase Inhibitor [Human], HAE prophylactic product		69 h			345 hours = ~14.5 days
